Data as given in patent publication EP3974434B1, “MACROLIDE DERIVATIVES, PREPARATION METHOD AND APPLICATION THEREOF” (Zhejiang Hisun Pharmaceutical Co., Ltd., priority 2019, dated 2020).

Columns and labels:
[1] = biological target: T1, ROS1 (Homo sapiens, UniProt P08922); test: HTRF KinEASE-TK kinase activity inhibition assay, ROS1; type: biochemical; conditions: ATP 1 µM
T1 construct: purchased SignalChem R14-11G-10
Excerpt: The following method was used to determine the inhibition degrees of the compounds of the present invention on the activity of recombinant human ROS1 kinase in vitro. In this method, HTRF®KinEASE-TK tyrosine kinase kit (article No. 62TK0PEB) of Cisbio company was used, the principle of the kit was based on time-resolved fluorescence resonance energy transfer (TF-FRET), and the inhibition of the compounds on the activity of the ROS1 kinase was reflected by determining a phosphorylation degree of a biotinylated polypeptide substrate mediated by ROS1 kinase. For detailed experimental operation, please refer to the kit instruction. […]
The experimental flow was briefly described as follows: a test compound was first dissolved in DMSO to prepare a storage solution, and then diluted in gradient with a buffer provided in the kit. […] An ATP Km value concentration of each ROS1 protein was determined by using an ATP solution diluted in gradient (Sangon Biotech (Shanghai) Co., Ltd., A600311). […] After incubation, fluorescence intensity values of each well at an excitation wavelength of 304 nm, and emission wavelengths of 620 nm and 665 nM were determined in a TF-FRET mode on a microplate reader, and the fluorescence intensity ratio 665/620 of each hole was calculated. […]

[2] = biological target: T2, TRKA(G595R) (Homo sapiens, UniProt P04629, G595R); test: HTRF KinEASE-TK kinase activity inhibition assay, TRKA(G595R); type: biochemical; conditions: ATP 7 µM
T2 construct: purchased SignalChem N16-12BG-10
Excerpt: The following method was used to determine the inhibition degrees of the compounds of the present invention on the activity of recombinant human NTRK family kinase in vitro. In this method, HTRF®KinEASE-TK tyrosine kinase kit (article number: 62TK0PEB) of Cisbio company was used, and the principle of the kit was based on time-resolved fluorescence resonance energy transfer (TF-FRET), and the inhibition of the compounds on the activity of the NTRK kinase was reflected by determining a phosphorylation degree of a biotinylated polypeptide substrate mediated by NTRK kinase. For detailed experimental operation, please refer to the kit instruction. Recombinant human wild-type NTRK proteins were purchased from Carna bioscience (the article numbers were TRKA #08-186, TRKB #08-187 and TRKC #08-197 respectively), and recombinant human mutant NTRK proteins were purchased from SignalChem (the article numbers were TRKA G595R #N16-12BG-10, TRKA G667C # N16-12CG-10, and TRKC G623R # N18-12CH-10 respectively).
The experimental methods were operated according to the steps in the kit instruction, and were briefly described as follows: a test compound was first dissolved in DMSO to prepare a storage solution, and then diluted in gradient with a buffer provided in the kit. A final concentration of the test compound in the reaction system ranged from 1,000 nM to 0.004 nM. An ATP Km value concentration of each NTRK protein was determined by using an ATP solution diluted in gradient (Sangon Biotech (Shanghai) Co., Ltd., A600311). According to the Km value obtained, the ATP concentrations in the reaction system were set as 100 µM for TRKA, 10 µM for TRKB, 50 µM for TRKC, 7 µM for TRKA(G595R), 1 µM for TRKA(G667C) and 100 µM for TRKC(G623R). The reaction was carried out in a 384-well microplate. Firstly, the compound and a certain amount of corresponding NTRK protein were added to the wells and incubated for 5 minutes to 10 minutes at room temperature. Then, the ATP solution and the biotinylated polypeptide substrate solution were added to the reaction solution and incubated with shaking at room temperature for 60 minutes. Then, an anti-phosphorylated tyrosine antibody coupled with a europium compound and streptavidin coupled with modified allophycocyanin XL665 were added to the reaction, and continuously incubated with shaking at room temperature for 1 hour. After incubation, fluorescence intensity values of each well at an excitation wavelength of 304 nm, and emission wavelengths of 620 nm and 665 nM were determined in a TF-FRET mode on a microplate reader. Compared with the fluorescence intensity ratio of a control group (0.1% DMSO), the percentage inhibition rates of the compound at each concentration were calculated, and the IC50 value of the compound was obtained by performing nonlinear regression analysis for logarithmic value of the compound concentration - inhibition rate by GraphPad Prism 5 software, which can be seen in Table 1. Table 1 IC50 data of the compounds of the present invention on TRK enzyme activity inhibition

T2 sequence (P04629 33-796 G595R): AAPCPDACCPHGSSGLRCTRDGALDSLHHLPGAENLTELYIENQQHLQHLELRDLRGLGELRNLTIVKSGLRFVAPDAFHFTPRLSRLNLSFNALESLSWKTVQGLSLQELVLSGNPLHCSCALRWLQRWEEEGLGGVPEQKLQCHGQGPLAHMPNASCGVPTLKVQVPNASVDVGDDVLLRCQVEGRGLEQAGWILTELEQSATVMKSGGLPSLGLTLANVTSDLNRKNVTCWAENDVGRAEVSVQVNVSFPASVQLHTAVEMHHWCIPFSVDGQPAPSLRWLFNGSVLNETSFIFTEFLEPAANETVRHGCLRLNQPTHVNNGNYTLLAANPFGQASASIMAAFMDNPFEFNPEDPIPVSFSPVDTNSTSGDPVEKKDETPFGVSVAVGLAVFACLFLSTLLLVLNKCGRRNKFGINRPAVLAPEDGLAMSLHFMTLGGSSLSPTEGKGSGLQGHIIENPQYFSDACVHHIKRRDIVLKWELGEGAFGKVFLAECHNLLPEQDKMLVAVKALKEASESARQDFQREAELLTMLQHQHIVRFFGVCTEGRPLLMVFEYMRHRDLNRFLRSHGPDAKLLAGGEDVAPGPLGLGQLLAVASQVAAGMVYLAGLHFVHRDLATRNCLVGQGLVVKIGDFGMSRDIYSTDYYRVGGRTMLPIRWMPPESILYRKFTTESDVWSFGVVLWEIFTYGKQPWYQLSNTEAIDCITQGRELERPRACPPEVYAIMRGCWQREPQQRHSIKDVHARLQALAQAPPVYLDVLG
T1 sequence (P08922 28-2347): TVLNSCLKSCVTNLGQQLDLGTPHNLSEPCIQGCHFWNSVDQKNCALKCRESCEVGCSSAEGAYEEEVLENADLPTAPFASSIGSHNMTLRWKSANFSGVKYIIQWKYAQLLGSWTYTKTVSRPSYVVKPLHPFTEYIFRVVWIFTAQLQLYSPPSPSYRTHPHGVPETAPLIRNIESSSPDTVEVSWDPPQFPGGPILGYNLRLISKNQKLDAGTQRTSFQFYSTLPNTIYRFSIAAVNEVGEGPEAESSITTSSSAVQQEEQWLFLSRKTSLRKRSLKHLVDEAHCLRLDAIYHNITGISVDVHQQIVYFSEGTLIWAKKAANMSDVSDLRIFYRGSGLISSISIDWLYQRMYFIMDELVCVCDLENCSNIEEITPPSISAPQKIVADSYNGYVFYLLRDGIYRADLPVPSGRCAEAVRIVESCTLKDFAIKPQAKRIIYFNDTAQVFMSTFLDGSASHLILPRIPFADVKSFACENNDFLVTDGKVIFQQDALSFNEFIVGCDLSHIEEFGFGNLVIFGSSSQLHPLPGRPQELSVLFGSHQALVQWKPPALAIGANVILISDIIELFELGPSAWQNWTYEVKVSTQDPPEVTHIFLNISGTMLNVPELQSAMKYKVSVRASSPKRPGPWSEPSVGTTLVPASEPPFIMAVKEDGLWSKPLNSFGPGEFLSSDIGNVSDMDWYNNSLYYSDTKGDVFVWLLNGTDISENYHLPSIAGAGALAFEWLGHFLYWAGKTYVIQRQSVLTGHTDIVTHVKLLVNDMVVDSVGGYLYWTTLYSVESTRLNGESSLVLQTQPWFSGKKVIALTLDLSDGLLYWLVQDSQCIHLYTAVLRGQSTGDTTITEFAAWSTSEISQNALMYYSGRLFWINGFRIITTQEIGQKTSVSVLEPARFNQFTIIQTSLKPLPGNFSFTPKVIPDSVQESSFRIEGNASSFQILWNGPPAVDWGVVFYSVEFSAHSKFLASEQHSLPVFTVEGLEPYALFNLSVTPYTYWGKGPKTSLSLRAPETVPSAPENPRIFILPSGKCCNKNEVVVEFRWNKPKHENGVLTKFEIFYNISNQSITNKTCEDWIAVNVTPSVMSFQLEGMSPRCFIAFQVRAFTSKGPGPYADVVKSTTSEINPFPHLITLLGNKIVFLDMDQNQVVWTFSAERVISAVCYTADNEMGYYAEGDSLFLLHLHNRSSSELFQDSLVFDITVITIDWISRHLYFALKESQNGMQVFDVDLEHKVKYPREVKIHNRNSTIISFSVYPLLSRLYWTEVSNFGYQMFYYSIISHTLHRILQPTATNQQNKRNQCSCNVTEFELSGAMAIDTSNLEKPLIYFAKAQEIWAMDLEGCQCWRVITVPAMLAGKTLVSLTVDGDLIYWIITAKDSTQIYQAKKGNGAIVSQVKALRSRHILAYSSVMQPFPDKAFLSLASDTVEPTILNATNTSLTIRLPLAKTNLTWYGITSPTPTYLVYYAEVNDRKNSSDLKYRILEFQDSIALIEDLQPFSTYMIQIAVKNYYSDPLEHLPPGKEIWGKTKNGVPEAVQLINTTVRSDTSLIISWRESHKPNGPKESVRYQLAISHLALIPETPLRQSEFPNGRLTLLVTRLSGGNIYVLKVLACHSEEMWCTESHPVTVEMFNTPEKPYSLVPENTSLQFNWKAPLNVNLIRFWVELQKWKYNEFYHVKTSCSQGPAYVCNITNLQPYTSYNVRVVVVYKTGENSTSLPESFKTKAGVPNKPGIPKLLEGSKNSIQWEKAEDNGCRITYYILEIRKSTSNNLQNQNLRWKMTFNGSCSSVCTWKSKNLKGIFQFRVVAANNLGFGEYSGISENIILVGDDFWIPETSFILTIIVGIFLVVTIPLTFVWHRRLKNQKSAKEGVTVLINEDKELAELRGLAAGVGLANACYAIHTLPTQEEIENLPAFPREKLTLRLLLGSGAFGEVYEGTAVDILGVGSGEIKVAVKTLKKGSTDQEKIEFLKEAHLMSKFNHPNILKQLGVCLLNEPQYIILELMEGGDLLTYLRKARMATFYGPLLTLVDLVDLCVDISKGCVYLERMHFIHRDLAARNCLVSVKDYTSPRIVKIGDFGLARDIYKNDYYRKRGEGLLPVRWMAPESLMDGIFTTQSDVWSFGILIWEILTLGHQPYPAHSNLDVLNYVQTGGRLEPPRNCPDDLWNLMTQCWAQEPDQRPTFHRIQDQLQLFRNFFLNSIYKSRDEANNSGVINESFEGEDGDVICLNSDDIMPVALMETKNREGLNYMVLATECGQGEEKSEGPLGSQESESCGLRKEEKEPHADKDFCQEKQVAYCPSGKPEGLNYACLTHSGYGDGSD

| IC50 [1] [nM] | IC50 [2] [nM] | SMILES |
| --- | --- | --- |
| 0.84 | 5.4 | C[C@H]1Nc2ccn3nc(N)c(c3n2)C(=O)NC[C@@]2(C)Cc3cc(F)cc1c3O2 [Example 25, (3R,11R)-16-amino-6-fluoro-3,11-dimethyl-10-oxa-2,13,17,18,21-pentaazapentacyclo[13.5.2.1^8,11.0^4,9. 0^18,22]tricosa-1(21),4,6,8,15(22),16,19-heptaen-14-one] |
| 0.36 | 2.03 | C[C@H]1Nc2ccn3ncc(c3n2)C(=O)NC[C@@]2(C)Cc3cc(F)cc1c3O2 [Example 8, (3R,11R)-6-fluoro-3,11-dimethyl-10-oxa-2,13,17,1 8,21-pentaazapentacyclo[13.5.2.1^8,11.0^4,9.0^18,22]tric osa-1(21),4,6,8,15(22),16,19-heptaen-14-one] |
